In article PMC11392244, “Characterization of a unique catechol-O-methyltransferase as a molecular drug target in parasitic filarial nematodes” (PLOS Neglected Tropical Diseases, 2024):
“And” between values parts separate entries of the source, which are not always exact repeats. Identical values can stand only once. Like-named read-outs stand apart in the source and are kept apart here.

How the values were obtained:
DiMT protein = format: biochemical, Dirofilaria immitis; details: for IC50: read-out: IC 50 (μM ± SEM)
D. immitis microfilariae = test: In vitro efficacy against live D. immitis microfilariae (motility, completely immotile %); format: cell-based, Dirofilaria immitis; details: for EC50: 96 h post-treatment, read-out: Anti-parasitic EC50; for Completely Immotile Microfilariae (%): single experiments; for effect on microfilariae: up to 120 h of culture
mammalian cells = details: read-out: Cytotoxicity IC50, ref Zhang et al., [30]; cited from earlier work
Gram-positive bacteria = test system: Gram-positive bacteria; design: method as in PMID 4622052; details: in vitro and in vivo; ref [59]; cited from earlier work
mice = details: ref [59]; cited from earlier work

## CO[C@@H]1/C=C\O[C@]2(C)Oc3c(C)c(O)c4c(O)c(c(CN(C)C)c(O)c4c3C2=O)NC(=O)/C(C)=C\C=C[C@@H](C)[C@@H](O)[C@H](C)[C@@H](O)[C@H](C)[C@H](OC(C)=O)[C@@H]1C [NSC145612]
DiMT protein; 50 µM
  Mean Percent Inhibition: 68.4% and 38.5% and 36.2%
  Mean Percent Inhibition, Average: 47.7%
DiMT protein; 100 µM
  Mean Percent Inhibition: 57.6% and 50.0% and 61.2%
  Mean Percent Inhibition, Average: 56.3%
DiMT protein; 150 µM
  Mean Percent Inhibition: 66.2% and 62.4% and 82.9%
  Mean Percent Inhibition, Average: 70.5%
DiMT protein; 200 µM
  Mean Percent Inhibition: 77.2% and 75.4% and 75.6%
  Mean Percent Inhibition, Average: 76.1%
DiMT protein; 250 µM
  Mean Percent Inhibition: 84.0% and 87.6% and 81.7%
  Mean Percent Inhibition, Average: 84.4%
DiMT protein
  IC50: 62.1 ± 1.8 µM
D. immitis microfilariae; 25 µM, 0 h
  Mean completely Immotile (%): 0%
  Completely Immotile Microfilariae (%): 0%
D. immitis microfilariae; 25 µM, 24 h
  Mean completely Immotile (%): 4.67%
  Completely Immotile Microfilariae (%): 5% and 3% and 6%
D. immitis microfilariae; 25 µM, 48 h
  Mean completely Immotile (%): 10.17%
  Completely Immotile Microfilariae (%): 10% and 8% and 12.5%
D. immitis microfilariae; 25 µM, 72 h
  Mean completely Immotile (%): 25%
  Completely Immotile Microfilariae (%): 28% and 22% and 25%
D. immitis microfilariae; 25 µM, 96 h
  Mean completely Immotile (%): 38.33%
  Completely Immotile Microfilariae (%): 41% and 36% and 38% and 50%
D. immitis microfilariae; 25 µM, 120 h
  Mean completely Immotile (%): 48.67%
  Completely Immotile Microfilariae (%): 50% and 44% and 52%
D. immitis microfilariae; 50 µM, 0 h
  Mean completely Immotile (%): 0%
  Completely Immotile Microfilariae (%): 0%
D. immitis microfilariae; 50 µM, 24 h
  Mean completely Immotile (%): 12%
  Completely Immotile Microfilariae (%): 10% and 12% and 14%
D. immitis microfilariae; 50 µM, 48 h
  Mean completely Immotile (%): 26.33%
  Completely Immotile Microfilariae (%): 25% and 23% and 31%
D. immitis microfilariae; 50 µM, 72 h
  Mean completely Immotile (%): 43.33%
  Completely Immotile Microfilariae (%): 40% and 44% and 46%
D. immitis microfilariae; 50 µM, 96 h
  Mean completely Immotile (%): 64%
  Completely Immotile Microfilariae (%): 60% and 64% and 68% and 100%
D. immitis microfilariae; 75 µM, 0 h
  Mean completely Immotile (%): 0%
  Completely Immotile Microfilariae (%): 0%
D. immitis microfilariae; 75 µM, 24 h
  Mean completely Immotile (%): 24.33%
  Completely Immotile Microfilariae (%): 21% and 28% and 24%
D. immitis microfilariae; 75 µM, 48 h
  Mean completely Immotile (%): 87.33%
  Completely Immotile Microfilariae (%): 85% and 90% and 87%
D. immitis microfilariae; 75 µM, 72 h
  Mean completely Immotile (%): 96.67%
  Completely Immotile Microfilariae (%): 95% and 97% and 98%
D. immitis microfilariae; 75 µM, 96 h
  Mean completely Immotile (%): 100%
  Completely Immotile Microfilariae (%): 100%
D. immitis microfilariae; 75 µM, 120 h
  Mean completely Immotile (%): 100%
  Completely Immotile Microfilariae (%): 100%
D. immitis microfilariae; 100 µM, 0 h
  Mean completely Immotile (%): 0%
  Completely Immotile Microfilariae (%): 0%
D. immitis microfilariae; 100 µM, 24 h
  Mean completely Immotile (%): 55.33%
  Completely Immotile Microfilariae (%): 50% and 56% and 60%
D. immitis microfilariae; 100 µM, 48 h
  Mean completely Immotile (%): 94.33%
  Completely Immotile Microfilariae (%): 93% and 95%
D. immitis microfilariae; 100 µM, 72 h
  Mean completely Immotile (%): 100%
  Completely Immotile Microfilariae (%): 100%
D. immitis microfilariae; 100 µM, 96 h
  Mean completely Immotile (%): 100%
  Completely Immotile Microfilariae (%): 100%
D. immitis microfilariae; 100 µM, 120 h
  Mean completely Immotile (%): 100%
  Completely Immotile Microfilariae (%): 100%
D. immitis microfilariae
  EC50: 32.2 µM
  effect on microfilariae: killing effect
D. immitis microfilariae; 50 µM, 120 h
  Completely Immotile Microfilariae (%): 100%
Mammalian cells
  IC50: 302 µM

## CO[C@@H]1/C=C/O[C@@]2(C)Oc3c(C)c(O)c4c(c3C2=O)C(=N[C@@H]2CC[C@@H](O)O[C@H]2C)C=C(NC(=O)/C(C)=C\C(=O)[C@@H]2C[C@@H]2[C@H](O)[C@@H](C)[C@@H](O)[C@@H](C)[C@H](OC(C)=O)[C@@H]1C)C4=O [NSC177383, tolypomycin-Y]
DiMT protein; 40 µM
  Mean Percent Inhibition: 17.3% and 18.1% and 14.9%
  Mean Percent Inhibition, Average: 16.8%
DiMT protein; 80 µM
  Mean Percent Inhibition: 30.5% and 30.7% and 34.4%
  Mean Percent Inhibition, Average: 31.9%
DiMT protein; 120 µM
  Mean Percent Inhibition: 45.9% and 41.2% and 40.2%
  Mean Percent Inhibition, Average: 42.4%
DiMT protein; 140 µM
  Mean Percent Inhibition: 50.6% and 45.4% and 42.2%
  Mean Percent Inhibition, Average: 46.1%
DiMT protein; 180 µM
  Mean Percent Inhibition: 63.6% and 62.4% and 64.2%
  Mean Percent Inhibition, Average: 63.4%
DiMT protein
  IC50: 140 ± 2.2 µM
D. immitis microfilariae; 10 µM, 0 h
  Mean completely Immotile (%): 0%
  Completely Immotile Microfilariae (%): 0%
D. immitis microfilariae; 10 µM, 24 h
  Mean completely Immotile (%): 7.83%
  Completely Immotile Microfilariae (%): 5% and 8.5% and 10%
D. immitis microfilariae; 10 µM, 48 h
  Mean completely Immotile (%): 18.5%
  Completely Immotile Microfilariae (%): 15% and 19.5% and 21%
D. immitis microfilariae; 10 µM, 72 h
  Mean completely Immotile (%): 27.33%
  Completely Immotile Microfilariae (%): 25% and 27% and 30%
D. immitis microfilariae; 10 µM, 96 h
  Mean completely Immotile (%): 38%
  Completely Immotile Microfilariae (%): 35% and 38% and 41%
D. immitis microfilariae; 10 µM, 120 h
  Mean completely Immotile (%): 56.33%
  Completely Immotile Microfilariae (%): 50% and 61% and 58%
D. immitis microfilariae; 25 µM, 0 h
  Mean completely Immotile (%): 0%
  Completely Immotile Microfilariae (%): 0%
D. immitis microfilariae; 25 µM, 24 h
  Mean completely Immotile (%): 25.33%
  Completely Immotile Microfilariae (%): 25% and 28% and 23%
D. immitis microfilariae; 25 µM, 48 h
  Mean completely Immotile (%): 33%
  Completely Immotile Microfilariae (%): 30% and 37% and 32%
D. immitis microfilariae; 25 µM, 72 h
  Mean completely Immotile (%): 71.33%
  Completely Immotile Microfilariae (%): 70% and 76% and 68%
D. immitis microfilariae; 25 µM, 96 h
  Mean completely Immotile (%): 91.33%
  Completely Immotile Microfilariae (%): 90% and 95% and 89%
D. immitis microfilariae; 40 µM, 0 h
  Mean completely Immotile (%): 0%
  Completely Immotile Microfilariae (%): 0%
D. immitis microfilariae; 40 µM, 24 h
  Mean completely Immotile (%): 57.67%
  Completely Immotile Microfilariae (%): 50% and 65% and 58%
D. immitis microfilariae; 40 µM, 48 h
  Mean completely Immotile (%): 87.67%
  Completely Immotile Microfilariae (%): 85% and 90% and 88%
D. immitis microfilariae; 40 µM, 72 h
  Mean completely Immotile (%): 96.67%
  Completely Immotile Microfilariae (%): 95% and 98% and 97%
D. immitis microfilariae; 40 µM, 96 h
  Mean completely Immotile (%): 100%
  Completely Immotile Microfilariae (%): 100%
D. immitis microfilariae; 40 µM, 120 h
  Mean completely Immotile (%): 100%
  Completely Immotile Microfilariae (%): 100%
D. immitis microfilariae; 50 µM, 0 h
  Mean completely Immotile (%): 0%
  Completely Immotile Microfilariae (%): 0%
D. immitis microfilariae; 50 µM, 24 h
  Mean completely Immotile (%): 64.67%
  Completely Immotile Microfilariae (%): 60% and 78% and 56%
D. immitis microfilariae; 50 µM, 48 h
  Mean completely Immotile (%): 93.67%
  Completely Immotile Microfilariae (%): 90% and 95% and 96%
D. immitis microfilariae; 50 µM, 72 h
  Mean completely Immotile (%): 100%
  Completely Immotile Microfilariae (%): 100%
D. immitis microfilariae; 50 µM, 96 h
  Mean completely Immotile (%): 100%
  Completely Immotile Microfilariae (%): 100%
D. immitis microfilariae; 50 µM, 120 h
  Mean completely Immotile (%): 100%
  Completely Immotile Microfilariae (%): 100%
D. immitis microfilariae; 75 µM, 0 h
  Mean completely Immotile (%): 0%
  Completely Immotile Microfilariae (%): 0%
D. immitis microfilariae; 75 µM, 24 h
  Mean completely Immotile (%): 95.33%
  Completely Immotile Microfilariae (%): 95% and 93% and 98%
D. immitis microfilariae; 75 µM, 48 h
  Mean completely Immotile (%): 100%
  Completely Immotile Microfilariae (%): 100%
D. immitis microfilariae; 75 µM, 72 h
  Mean completely Immotile (%): 100%
  Completely Immotile Microfilariae (%): 100%
D. immitis microfilariae; 75 µM, 96 h
  Mean completely Immotile (%): 100%
  Completely Immotile Microfilariae (%): 100%
D. immitis microfilariae; 75 µM, 120 h
  Mean completely Immotile (%): 100%
  Completely Immotile Microfilariae (%): 100%
D. immitis microfilariae; 100 µM, 0 h
  Mean completely Immotile (%): 0%
  Completely Immotile Microfilariae (%): 0%
D. immitis microfilariae; 100 µM, 24 h
  Mean completely Immotile (%): 100%
  Completely Immotile Microfilariae (%): 100%
D. immitis microfilariae; 100 µM, 48 h
  Mean completely Immotile (%): 100%
  Completely Immotile Microfilariae (%): 100%
D. immitis microfilariae; 100 µM, 72 h
  Mean completely Immotile (%): 100%
  Completely Immotile Microfilariae (%): 100%
D. immitis microfilariae; 100 µM, 96 h
  Mean completely Immotile (%): 100%
  Completely Immotile Microfilariae (%): 100%
D. immitis microfilariae; 100 µM, 120 h
  Mean completely Immotile (%): 100%
  Completely Immotile Microfilariae (%): 100%
D. immitis microfilariae
  EC50: 11.7 µM and 11.6 µM
  effect on microfilariae: killing effect
D. immitis microfilariae; 25 µM, 120 h
  Completely Immotile Microfilariae (%): 100%
Gram-positive bacteria
  antimicrobial activities against Gram-positive bacteria: strong antimicrobial activities
Mammalian cells
  IC50: 85.5 µM
mice
  toxicity in mice: low toxicity
